Source: US20220162559A1, “MYOCARDIAL ORGANOIDS AND METHODS OF MAKING AND USES THEREOF” (CLEMSON UNIVERSITY RESEARCH FOUNDATION, priority 2018, published 2022)

Legend:
Format in all cases: cell-based, human
[1] = tested on: cardiac infarct organoids; assay: Contraction analysis of beating organoids (contraction amplitude, beat rate), infarct organoids
Protocol: For the cardiac infarction protocol, microtissues (about150 μm radius on D0) were placed in a hypoxia chamber within the incubator at about 10% O2 with 1 μM of norepinephrine (NE, A7257, Sigma) after 4 days of pre-culture. Media was changed with fresh NE every 2 days for the length of the experiment (10 days). For extended validation studies, 20 ng/ml of human recombinant transforming growth factor beta 1 (TGF-β1, ab50036, Abcam, Cambridge, UK), 10 nM of JQ1 (SML1524, Sigma), and 2 ng/ml of human recombinant vascular endothelial growth factor (VEGF, CC-4114A, Lonza) was added to the media every 2 days for infarct organoids for the length of the experiment (10 days).
(§1) Videos of spontaneously beating spheroids from each group were recorded immediately out of the incubator (to reduce temperature induced changes in beating) for each condition using a Carl Zeiss Axiovert A1 Inverted Microscope and Zen 2011 software (Zeiss, Gottingen, Germany). Threshold edge-detecting in ImageJ software (NIH—US National Institutes of Health) was used on high contrast spheroid picture series and graphed to realize beating profiles of fractional area change, from which contraction amplitude was calculated. Contraction amplitudes were calculated as the percent change in fractional area change amplitude between contraction and relaxation. Beat rate was calculated as the number of beats per second.

[2] = tested on: control cardiac organoids; assay: Immunofluorescent staining of organoid sections (vimentin), control organoids; conditions: 48 hrs of exposure
Protocol: Freshly collected organoids were flash frozen in Tissue-Tek OCT compound (Sakura, Torrance, Calif.). Embedded spheroids were cryosectioned into 7 μm thickness layers onto glass slides for immunofluorescence staining. The sections were fixed with pre-cooled acetone (−20° C.) for 10 min. After washing (2 times at 5 min) in PBS with 0.1% Triton X-100 (PBST) (Sigma), blocking buffer was made with 10% serum corresponding to host species of secondary antibody in PBST and added to sections for 1 hr at room temperature. Sections were incubated with primary antibody diluted in PBST (1:200) overnight at 4° C. or 2 hrs at room temperature: mouse anti-alpha smooth muscle actin (A5228, Sigma), mouse anti-alpha sarcomeric actinin (ab9465, Abcam), rabbit anti-collagen type I (ab34710, Abcam), rabbit anti-vimentin (ab92547, Abcam), rabbit anti-von Willebrand factor (ab6994, Abcam). After washing in PBST (2 times at 5 min), sections were incubated with complement secondary antibodies or conjugated primary antibodies diluted in PBST for 1 hr at room temperature: Alexa Fluor 488 phalloidin (A12379, Thermo), goat anti-mouse Alexa Fluor 546 (A1103, Thermo), goat anti-rabbit Alexa Fluor 647 (111-605-144, Jackson ImmunoResearch, West Grove, Pa.). […] Vimentin radial density was calculated using the Radial Profile ImageJ plugin and normalized to radius equal to 1. […]

[3] = tested on: cardiac infarct organoids; assay: TUNEL apoptotic staining of organoid sections; conditions: 1 μM, 48 hours of exposure
Protocol: The Roche In Situ Cell Death Detection Kit (Sigma) was used to visualize apoptotic cells in frozen sections of cardiac organoids based on the Roche protocol. Briefly, cardiac organoid frozen sections were fixed with 4% paraformaldehyde in PBS for 20 min at room temperature. Following washing in PBS for 30 minutes, samples were incubated in a permeabilization solution (0.1% Triton X-100 and 0.1% sodium citrate in PBS) for 2 minutes on ice. Then 50 μl of the TUNEL reaction mixture were added to samples and incubated at 37° C. for 1 hr. After washing in PBS (2 times at 5 min), nuclei were counterstained with DAPI (Molecular Probes/Invitrogen) diluted in PBS for 15 min at ambient temperature. Following the final wash procedure (PBS, 2 times at 5 min), glass cover slips were added to the slides using Fluoro-Gel (Electron Microscopy Sciences). TCS SP5 AOBS laser scanning confocal microscope (Leica Microsystems) was used for imaging.

[4] = tested on: control cardiac organoids; assay: Contraction analysis of beating organoids (contraction amplitude, beating), control organoids
Source text: Non-adhesive agarose hydrogel molds were used as microtissue fabrication molds made from commercial master micro-molds from Microtissues, Inc (Providence, R.I.). Working cell suspensions of each cell type were used at about 4.0×10^6 cells/ml to make organoid cell ratio mixtures of about 50% hiPSC-CMs and about 50% non-myocyte (4:2:1 ratio of FBs, HUVECs, hADSCs, respectively) and mixed with 1 volume media for a final concentration of about 2.0×10^6 cells/ml. hiPSC-CM only spheroids were fabricated using 100% hiPSC-CMs at a final concentration of about 2.0×10^6 cells/ml. Approximately 75 μl of the cell suspension was pipetted into each agarose mold. […]
as §1

[5] = tested on: hiPSC-CMs; assay: 2D hiPSC-CM culture with in vitro infarction protocol and DOX; conditions: hypoxic culture (1%) with 1 μM NE 2 days prior to 2 days DOX treatment
Source text: As a control, we performed 2D studies using hiPSC-CMs with DOX to evaluate the combined effects of an in vitro infarction protocol and DOX on hiPSC-CMs. […] Nearly 100% of cells death was found for hiPSC-CMs after 4 days of the same hypoxic culture using hiPSC-CM media with galactose but no glucose, which has been attributed to the lack of glucose in the hiPSC-CM media. In addition, extended culture of 2D hiPSC-CMs in organoid media to mimic prolonged organoid infarction protocol led to minimal and irregular hiPSC-CM contractile behavior accompanied with the reduction of αSA+ cells. In contrast to the inherent difficulties of using 2D hiPSC-CM culture systems to model post-MI responses, human infarct organoids provide a robust, biomimetic […] tissue-level context to evaluate the effects of DOX on the post-MI cardiac tissues.

[6] = tested on: cardiac infarct organoids; assay: Immunofluorescent staining of organoid sections (vimentin, alpha sarcomeric actinin, αSMA, collagen), infarct organoids
Protocol: Freshly collected organoids were flash frozen in Tissue-Tek OCT compound (Sakura, Torrance, Calif.). Embedded spheroids were cryosectioned into 7 μm thickness layers onto glass slides for immunofluorescence staining. The sections were fixed with pre-cooled acetone (−20° C.) for 10 min. After washing (2 times at 5 min) in PBS with 0.1% Triton X-100 (PBST) (Sigma), blocking buffer was made with 10% serum corresponding to host species of secondary antibody in PBST and added to sections for 1 hr at room temperature. Sections were incubated with primary antibody diluted in PBST (1:200) overnight at 4° C. or 2 hrs at room temperature: mouse anti-alpha smooth muscle actin (A5228, Sigma), mouse anti-alpha sarcomeric actinin (ab9465, Abcam), rabbit anti-collagen type I (ab34710, Abcam), rabbit anti-vimentin (ab92547, Abcam), rabbit anti-von Willebrand factor (ab6994, Abcam). After washing in PBST (2 times at 5 min), sections were incubated with complement secondary antibodies or conjugated primary antibodies diluted in PBST for 1 hr at room temperature: Alexa Fluor 488 phalloidin (A12379, Thermo), goat anti-mouse Alexa Fluor 546 (A1103, Thermo), goat anti-rabbit Alexa Fluor 647 (111-605-144, Jackson ImmunoResearch, West Grove, Pa.). After washing in PBST (2 times at 5 min), nuclei were counterstained with DAPI (Molecular Probes/Invitrogen, Eugene, Oreg.) diluted in PBST for 15 min at room temperature. Following the final wash procedure (PBST, 2 times at 5 min), glass cover slips were added using Fluoro-Gel (Electron Microscopy Sciences, Hatfield, Pa.) and stored in 4° C. until imaging. TCS SP5 AOBS laser scanning confocal microscope (Leica Microsystems, Inc., Exton, Pa.) was for imaging. Vimentin radial density was calculated using the Radial Profile ImageJ plugin and normalized to radius equal to 1. Each analysis consisted of high resolution images at 400× total magnification of cross sections of different organoids.

[7] = tested on: cardiac infarct organoids; assay: Mechanical testing using micropipette aspiration (elastic modulus)
Protocol: A micropipette aspiration was performed in media similarly to previous studies using a custom-built fluid reservoir to generate a fixed pressure of 40 cm H2O (about 3.9 kPa) in pulled micropipette to apply the suction force on test organoids.^23,24 Validation and stability of pressure changes were confirmed using an in-line 5 kPa 2-port pressure transducer with about 1 Pa sensitivity (Honeywell, Morristown, N.J.). Micropipettes were pulled to a final inner diameter of approximately 40-60 μm. Prior to and during testing, organoids were soaked in a 30 mM solution of 2,3-butanedione monoxime (BDM) (Sigma) in media for 5-10 min to eliminate contractions to reduce the effect of contractile status on tissue stiffness. Pressure was applied to the organoid surface and pictures were recorded until reaching equilibrium deformation (about 5 min) (FIG. 2F). Under the homogeneous half-space model assumptions^23, the change in length (L) from pre-deformation to equilibrium deformation was used to calculate the elastic modulus according the previously established relationship: E=3aΔp/2πL Φ(η), where E is elastic modulus, a is the inner micropipette radius, Δp is the applied pressure, Φ( ) is the wall function (under punch model assumptions), and η is the wall parameter.^24,25

[8] = tested on: cardiac infarct organoids; assay: Calcium transient imaging with two-photon light sheet microscope (beating synchronization)
Source text: To functionally interpret the transcriptomic shifts in cardiomyocyte calcium handling and arrhythmogenesis, a two-photon, laser-scanning, light sheet (2PLS) microscope was used that allowed for deeper tissue penetration with high-speed imaging (50 frames/sec) and orthogonal selected plane (about 4 μm thickness) illumination.^27 Given its strength for in situ imaging, the 2PLS microscope allowed for the visualization of calcium handling in the interior regions of 3D cardiac microtissues to study calcium handling and arrhythmogenicity across the organoids. Organoids were fabricated with GCaMP6-labeled hiPSC-CMs and calcium transient amplitudes (ΔF/F0) were measured from “cell-sized” regions of interest (ROIs) (representing individual cardiomyocytes) inside organoids. […] In particular, imaging and calcium transient profiles of synchronized edge and interior cardiomyocyte ROIs from human induced pluripotent stem cell-derived-cardiomyocyte (hiPSC-CM) spheroids were cultured in the cardiac organoid infarction protocol.

[9] = 20 ng/ml added during infarction protocol
[10] = 10 nM added to infarct organoid culture

NC[C@H](O)c1ccc(O)c(O)c1 [NE, norepinephrine]
beat rate ([1]; 10% O2 with 1 μM for 10 days, versus control organoids): increase in beat rate

COc1cccc2c1C(=O)c1c(O)c3c(c(O)c1C2=O)C[C@@](O)(C(=O)CO)C[C@@H]3O[C@H]1C[C@H](N)[C@H](O)[C@H](C)O1 [DOX, doxorubicin]
dose inducing an increase in vimentin+ density [2]: 1.0 µM
IC50 ([1]; Homo sapiens, infarct organoids, 48 hrs of exposure starting on D10): ~150 nM
concentration at cessation of beating ([1]; infarct organoids): 1 µM
apoptosis (TUNEL analysis) [3]: significantly increased apoptosis
concentration at cessation of beating [4]: 10 µM
IC50 ([4]; Homo sapiens, 48 hrs of exposure starting on D10): ~370 nM
viability and contractile structures/organization of 2D hiPSC-CMs [5]: exacerbation of DOX-induced reduction in viability and reduction in contractile structures/organization
dose inducing an increase in vimentin+ density ([6]; infarct organoids, 48 hrs of exposure): 0.1 µM
αSA staining relative to vehicle control (sarcomeric organization) ([6]; interior of infarct organoids, 0.1 μM): significantly decreases

COCCc1ccc(OCC(O)CNC(C)C)cc1 (centres unmarked) [metoprolol]
NE-induced increase in beat rate ([1]; infarct organoids cultured with 10 μM, D10): reversed

TGF-β1: human recombinant transforming growth factor beta 1, pro-fibrotic stimulus
organoid stiffness (elastic modulus) [7, 9]: significant increase in organoid stiffness
collagen organization and presence of αSMA+ myofibroblast-like cells [6, 9]: further increased

VEGF
unsynchronized beating of infarct organoids ([8]; 2 ng/ml): reduction of unsynchronization

Cc1sc2c(c1C)C(c1ccc(Cl)cc1)=N[C@@H](CC(=O)OC(C)(C)C)c1nnc(C)n1-2 [JQ1]
organoid stiffness (elastic modulus) [7, 10]: significant decrease in stiffness
unsynchronized beating of infarct organoids ([8]; 10 nM): reduction of unsynchronization
vimentin+ density at the infarct organoid edge [6, 10]: significantly reduced
